Results taken from publication PMC11062906 (Nature, 2024).
“Also recorded” adds a separate entry of the source.

Columns and labels:
BmGr9 [1] = biological target: T1, BmGr9 (Bombyx mori, UniProt B3GTD7); details: electrophysiology; ref Sato et al. PNAS, 2011; cited from earlier work
BmGr9 [2] = biological target: T1, BmGr9; test: Intrinsic tryptophan fluorescence of detergent-solubilized purified BmGr9; assay type: binding; details: purified BmGr9 in digitonin, n = 4, 95% CI in parentheses
BmGr9 [3] = biological target: T1, BmGr9; test: Cell-based GCaMP calcium flux assay, wild-type BmGr9
[4] = system: BmGr9 Q443, F444, and Q445 mutants; test: GCaMP assay, L-sorbose on BmGr9 Q443, F444 and Q445 mutants; assay type: cell-based, Bombyx mori; details: author rebuttal

T1 sequence (B3GTD7 entry or part of it): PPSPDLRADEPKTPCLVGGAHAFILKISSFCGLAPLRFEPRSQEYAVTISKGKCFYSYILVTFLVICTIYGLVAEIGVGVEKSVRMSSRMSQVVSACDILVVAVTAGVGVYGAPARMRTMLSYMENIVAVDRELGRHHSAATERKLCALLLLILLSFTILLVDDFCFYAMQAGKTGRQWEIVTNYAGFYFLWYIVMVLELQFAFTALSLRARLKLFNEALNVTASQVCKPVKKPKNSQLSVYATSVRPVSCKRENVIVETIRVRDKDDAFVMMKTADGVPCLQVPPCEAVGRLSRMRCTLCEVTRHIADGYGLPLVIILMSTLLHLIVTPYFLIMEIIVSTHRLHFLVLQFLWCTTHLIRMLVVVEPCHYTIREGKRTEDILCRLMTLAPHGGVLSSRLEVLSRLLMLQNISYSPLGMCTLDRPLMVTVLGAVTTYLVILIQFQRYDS

O=C(CO)[C@@H](O)[C@H](O)[C@@H](O)CO [L-sorbose]
activation of BmGr9 in oocytes (BmGr9 [1]): not to activate | Kd (BmGr9 [2]; KD (apparent affinity, tryptophan fluorescence)): 63 mM | KD (apparent affinity, tryptophan fluorescence) (BmGr9 [2]): affinity close to that of D-fructose | Activation of BmGr9 (change in fluorescence) by sweet compound (BmGr9 [3]; 100 mM sweet compound, HEK293 cells with BmGr9 plus GCaMP vs GCaMP only): not statistically different than GCaMP alone; also recorded: did not activate BmGr9 significantly | maximum activity in dose-response (BmGr9 [3]; titration, n = 5, vs GCaMP-only control wells): less than control wells with GCaMP only | activation of BmGr9 mutants by L-sorbose [4]: does not appear that L-sorbose can activate any of these BmGr9 mutants
